In patent publication US11850259B2, “Methods of treating viral infections affecting the respiratory tract using topically administered lithium agents” (United States Government as Represented by the Department …, priority 2020, dated 2023):
Like-named read-outs stand apart in the source and are kept apart here.

Legend:
[1] = tested on: MSU-induced gout in the rat ankle; settings: photomicrograph at 2-times magnification after topical administration
Source text: It was anticipated that the pathology may bring additional clarity to show lithium carbonate's action on the cytokine storm. Rat ankle samples banked in formalin were sent for microscopic analysis.

[2] = applied to the epithelium of the skin, gout model
Source text: Once that occurred, the lithium acted on the tissues and blood vessels surrounding the joint, preventing the entry of the inflammatory cells into the joint.

GSK3B = GSK3B (Homo sapiens, UniProt P49841); settings: in neutrophils; cited from earlier work
GSK3B, sequence (P49841 whole entry, species assumed): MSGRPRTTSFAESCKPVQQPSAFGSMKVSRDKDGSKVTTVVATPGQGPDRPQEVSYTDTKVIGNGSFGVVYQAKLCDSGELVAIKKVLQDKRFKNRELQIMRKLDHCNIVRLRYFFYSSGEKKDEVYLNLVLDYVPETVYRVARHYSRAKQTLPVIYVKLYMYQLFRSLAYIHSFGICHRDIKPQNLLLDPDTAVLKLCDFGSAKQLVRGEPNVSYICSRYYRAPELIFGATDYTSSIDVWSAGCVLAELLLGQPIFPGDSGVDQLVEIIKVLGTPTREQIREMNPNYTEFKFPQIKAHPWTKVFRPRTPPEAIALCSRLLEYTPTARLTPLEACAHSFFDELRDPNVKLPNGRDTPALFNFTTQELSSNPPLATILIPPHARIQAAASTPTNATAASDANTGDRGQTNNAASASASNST

[3] = tested on: MSU-induced gout in the rat ankle; settings: for KC-GRO (KC/GRO) level: synovial fluid, eight hours post MSU-induced gout
[4] = serum of subjects tested; cited from earlier work
[5] = BRT rat MSU model, eight hours post MSU, topical application

Compound: O=C([O-])[O-].[Li+].[Li+] [lithium carbonate]
- Edema [1]: minimal edema
- Raft of white blood cells [1]: only a very small raft of white blood cells
- Synovial hypertrophy [1]: minimal synovial hypertrophy
- Penetration of skin epithelium [2]: penetrated to the synovium
- Increase of TNF-α protein synthesis (GSK3B): > 3 fold
- IL-1β level [3, 5]: induction
- IL-6 level [3, 5]: induction
- TNF-α level [3, 5]: induction
- KC-GRO (KC/GRO) level ([3]; rat ankle, topical application): Attenuation
- KC-GRO (KC/GRO) level ([3]; rat ankle, topical application, listed as lithium): surprisingly lessened
- Effect on gout ([3]; topical application of 2% lithium carbonate, rat ankle): attenuated gout
- IL-1β in serum [4]: consistent increase
- IL-6 in serum [4]: consistent increase
- TNF-α in serum [4]: consistent increase
